In US20210015098A1, “MOLECULES HAVING PESTICIDAL UTILITY, AND INTERMEDIATES, COMPOSITIONS, AND PROCESSES, RELATED THERETO” (DOW AGROSCIENCES LLC, priority 2018, published 2021):

How the values were obtained:
[1] = test system: Beet Armyworm (Spodoptera exigua, LAPHEG); assay: Bioassays on Beet Armyworm (BAW), 128-well diet tray assay; assay type: in vivo; settings: Beet Armyworm, Table ABC Biological Results, read-out: BAW (rating)
Protocol: (§1) Certain molecules disclosed in this document were tested against BAW and CL using procedures described in the following examples. In the reporting of the results, the “BAW & CL Rating Table” was used (See Table Section).
Bioassays on BAW were conducted using a 128-well diet tray assay. One to five second instar BAW larvae were placed in each well (3 mL) of the diet tray that had been previously filled with 1 mL of artificial diet to which 50 μg/cm^2 of the test molecule (dissolved in 50 μL of 90:10 acetone-water mixture) had been applied (to each of eight wells) and then allowed to dry. Trays were covered with a clear self-adhesive cover, vented to allow gas exchange, and held at 25° C., 14:10 light-dark for five to seven days. Percent mortality was recorded for the larvae in each well; activity in the eight wells was then averaged. The results are indicated in the table entitled “Table ABC: Biological Results” (See Table Section).

[2] = test system: Cabbage Looper (Trichoplusia ni, TRIPNI); assay: Bioassays on Cabbage Looper (CL), 128-well diet tray assay; assay type: in vivo; settings: Cabbage Looper, Table ABC Biological Results, read-out: CL (rating)
Protocol: as §1
Bioassays on CL were conducted using a 128-well diet tray assay. One to five second instar CL larvae were placed in each well (3 mL) of the diet tray that had been previously filled with 1 mL of artificial diet to which 50 μg/cm^2 of the test molecule (dissolved in 50 μL of 90:10 acetone-water mixture) had been applied (to each of eight wells) and then allowed to dry. Trays were covered with a clear self-adhesive cover, vented to allow gas exchange, and held at 25° C., 14:10 light-dark for five to seven days. Percent mortality was recorded for the larvae in each well; activity in the eight wells was then averaged. The results are indicated in the table entitled “Table ABC: Biological Results” (See Table Section).

Row | SMILES | pest or weed control at 50 µg/cm2 [1] [%] | pest or weed control at 50 µg/cm2 [2] [%]
1 | O=C(CSC(F)(F)F)Nc1c(F)ccc(NC(=O)c2cc(NC(=O)[C@H]3[C@H](c4cc(C(F)(F)F)cc(C(F)(F)F)c4)C3(Cl)Cl)ccc2Cl)c1F (relative stereo) [F48, trans-5-(3-(3,5-Bis(trifluoromethyl)phenyl)-2,2-dichlorocyclopropane-1-carboxamido)-2-chloro-N-(2,4-difluoro-3-(2-((trifluoromethyl)thio)acetamido)phenyl)benzamide] | 50 to 100 | 50 to 100
2 | CSC(F)(F)C(=O)Nc1c(F)ccc(NC(=O)c2cc(NC(=O)[C@H]3[C@H](c4ccc(F)c(C(F)(F)F)c4)C3(Cl)Cl)ccc2Cl)c1F [F1, 2-Chloro-5-((1R,3R)-2,2-dichloro-3-(4-fluoro-3-(trifluoromethyl)phenyl)cyclopropane-1-carboxamido)-N-(3-(2,2-difluoro-2-(methylthio)acetamido)-2,4-difluorophenyl)benzamide] | 50 to 100 | 50 to 100
3 | O=C(CSc1ccncc1)Nc1c(F)ccc(NC(=O)c2cc(NC(=O)[C@H]3[C@H](c4ccc(F)c(C(F)(F)F)c4)C3(Cl)Cl)ccc2Cl)c1F [F2, 2-Chloro-5-((1R,3R)-2,2-dichloro-3-(4-fluoro-3-(trifluoromethyl)phenyl)cyclopropane-1-carboxamido)-N-(2,4-difluoro-3-(2-(pyridin-4-ylthio)acetamido)phenyl)benzamide] | 50 to 100 | 50 to 100
4 | O=C(CSc1ccc(F)cc1)Nc1c(F)ccc(NC(=O)c2cc(NC(=O)[C@H]3[C@H](c4ccc(F)c(C(F)(F)F)c4)C3(Cl)Cl)ccc2Cl)c1F [F4, 2-Chloro-5-((1R,3R)-2,2-dichloro-3-(4-fluoro-3-(trifluoromethyl)phenyl)cyclopropane-1-carboxamido)-N-(2,4-difluoro-3-(2-((4-fluorophenyl)thio)acetamido)phenyl)benzamide] | 50 to 100 | 50 to 100
5 | O=C(CSCCC(F)(F)F)Nc1c(F)ccc(NC(=O)c2cc(NC(=O)[C@H]3[C@H](c4ccc(F)c(C(F)(F)F)c4)C3(Cl)Cl)ccc2Cl)c1F [F5, 2-Chloro-5-((1R,3R)-2,2-dichloro-3-(4-fluoro-3-(trifluoromethyl)phenyl)cyclopropane-1-carboxamido)-N-(2,4-difluoro-3-(2-((3,3,3-trifluoropropyl)thio)acetamido)phenyl)benzamide] | 50 to 100 | 50 to 100
6 | O=C(CSCC(F)(F)F)Nc1c(F)ccc(NC(=O)c2cc(NC(=O)[C@H]3[C@H](c4cc(Cl)c(Cl)c(Cl)c4)C3(Cl)Cl)ccc2Cl)c1F [F6, 2-Chloro-5-((1R,3R)-2,2-dichloro-3-(3,4,5-trichlorophenyl)cyclopropane-1-carboxamido)-N-(2,4-difluoro-3-(2-((2,2,2-trifluoroethyl)thio)acetamido)phenyl)benzamide] | 50 to 100 | 50 to 100
7 | CC(SC(F)(F)F)C(=O)Nc1c(F)ccc(NC(=O)c2cc(NC(=O)[C@H]3[C@H](c4cc(Cl)c(Cl)c(Cl)c4)C3(Cl)Cl)ccc2Cl)c1F (stereo partly drawn) [F7, 2-Chloro-5-((1R,3R)-2,2-dichloro-3-(3,4,5-trichlorophenyl)cyclopropane-1-carboxamido)-N-(2,4-difluoro-3-(2-((trifluoromethyl)thio)propanamido)phenyl)benzamide] | 50 to 100 | 50 to 100
8 | O=C(CSC(F)(F)F)Nc1c(F)ccc(NC(=O)c2cc(NC(=O)[C@H]3[C@H](c4cc(Cl)c(Cl)c(Cl)c4)C3(Cl)Cl)ccc2Cl)c1F [F8, 2-Chloro-5-((1R,3R)-2,2-dichloro-3-(3,4,5-trichlorophenyl)cyclopropane-1-carboxamido)-N-(2,4-difluoro-3-(2-((trifluoromethyl)thio)acetamido)phenyl)benzamide] | 50 to 100 | 50 to 100
9 | O=C(CSCC(F)(F)F)Nc1c(F)ccc(NC(=O)c2cc(NC(=O)[C@H]3[C@H](c4ccc(Cl)c(Cl)c4)C3(Cl)Cl)ccc2Cl)c1F [F9, 2-Chloro-5-((1R,3R)-2,2-dichloro-3-(3,4-dichlorophenyl)cyclopropane-1-carboxamido)-N-(2,4-difluoro-3-(2-((2,2,2-trifluoroethyl)thio)acetamido)phenyl)benzamide] | 50 to 100 | 50 to 100
10 | CC(SC(F)(F)F)C(=O)Nc1c(F)ccc(NC(=O)c2cc(NC(=O)[C@H]3[C@H](c4ccc(Cl)c(Cl)c4)C3(Cl)Cl)ccc2Cl)c1F (stereo partly drawn) [F10, 2-Chloro-5-((1R,3R)-2,2-dichloro-3-(3,4-dichlorophenyl)cyclopropane-1-carboxamido)-N-(2,4-difluoro-3-(2-((trifluoromethyl)thio)propanamido)phenyl)benzamide] | 50 to 100 | 50 to 100
11 | O=C(CSC(F)(F)F)Nc1c(F)ccc(NC(=O)c2cc(NC(=O)[C@H]3[C@H](c4ccc(Cl)c(Cl)c4)C3(Cl)Cl)ccc2Cl)c1F [F11, 2-Chloro-5-((1R,3R)-2,2-dichloro-3-(3,4-dichlorophenyl)cyclopropane-1-carboxamido)-N-(2,4-difluoro-3-(2-((trifluoromethyl)thio)acetamido)phenyl)benzamide] | 50 to 100 | 50 to 100
12 | O=C(CSCC(F)(F)F)Nc1c(F)ccc(NC(=O)c2cc(NC(=O)[C@H]3[C@H](c4ccc(F)c(Cl)c4)C3(Cl)Cl)ccc2Cl)c1F [F12, 2-Chloro-5-((1R,3R)-2,2-dichloro-3-(3-chloro-4-fluorophenyl)cyclopropane-1-carboxamido)-N-(2,4-difluoro-3-(2-((2,2,2-trifluoroethyl)thio)acetamido)phenyl)benzamide] | 50 to 100 | 50 to 100
13 | CC(SC(F)(F)F)C(=O)Nc1c(F)ccc(NC(=O)c2cc(NC(=O)[C@H]3[C@H](c4ccc(F)c(Cl)c4)C3(Cl)Cl)ccc2Cl)c1F (stereo partly drawn) [F13, 2-Chloro-5-((1R,3R)-2,2-dichloro-3-(3-chloro-4-fluorophenyl)cyclopropane-1-carboxamido)-N-(2,4-difluoro-3-(2-((trifluoromethyl)thio)propanamido)phenyl)benzamide] | 50 to 100 | 50 to 100
14 | O=C(CSC(F)(F)F)Nc1c(F)ccc(NC(=O)c2cc(NC(=O)[C@H]3[C@H](c4ccc(F)c(Cl)c4)C3(Cl)Cl)ccc2Cl)c1F [F14, 2-Chloro-5-((1R,3R)-2,2-dichloro-3-(3-chloro-4-fluorophenyl)cyclopropane-1-carboxamido)-N-(2,4-difluoro-3-(2-((trifluoromethyl)thio)acetamido)phenyl)benzamide] | 50 to 100 | 50 to 100
15 | O=C(CCSc1ccccc1)Nc1c(F)ccc(NC(=O)c2cc(NC(=O)[C@H]3[C@H](c4ccc(F)c(C(F)(F)F)c4)C3(Cl)Cl)ccc2Cl)c1F [F20, 2-Chloro-5-((1R,3R)-2,2-dichloro-3-(4-fluoro-3-(trifluoromethyl)phenyl)cyclopropane-1-carboxamido)-N-(2,4-difluoro-3-(3-(phenylthio)propanamido)phenyl)benzamide] | 50 to 100 | 50 to 100
16 | O=C(CCSC(F)(F)F)Nc1c(F)ccc(NC(=O)c2cc(NC(=O)[C@H]3[C@H](c4ccc(F)c(C(F)(F)F)c4)C3(Cl)Cl)ccc2Cl)c1F [F22, 2-Chloro-5-((1R,3R)-2,2-dichloro-3-(4-fluoro-3-(trifluoromethyl)phenyl)cyclopropane-1-carboxamido)-N-(2,4-difluoro-3-(3-((trifluoromethyl)thio)propanamido)phenyl)benzamide] | 50 to 100 | 50 to 100
17 | O=C(C[S+]([O-])C(F)(F)F)Nc1c(F)ccc(NC(=O)c2cc(NC(=O)[C@H]3[C@H](c4cc(Cl)c(Cl)c(Cl)c4)C3(Cl)Cl)ccc2Cl)c1F (stereo partly drawn) [F26, 2-Chloro-5-((1R,3R)-2,2-dichloro-3-(3,4,5-trichlorophenyl)cyclopropane-1-carboxamido)-N-(2,4-difluoro-3-(2-((trifluoromethyl)sulfinyl)acetamido)phenyl)benzamide] | 50 to 100 | 50 to 100
18 | CC(C(=O)Nc1c(F)ccc(NC(=O)c2cc(NC(=O)[C@H]3[C@H](c4ccc(F)c(Cl)c4)C3(Cl)Cl)ccc2Cl)c1F)[S+]([O-])C(F)(F)F (stereo partly drawn) [F27, 2-Chloro-5-((1R,3R)-2,2-dichloro-3-(3-chloro-4-fluorophenyl)cyclopropane-1-carboxamido)-N-(2,4-difluoro-3-(2-((trifluoromethyl)sulfinyl)propanamido)phenyl)benzamide] | 50 to 100 | 50 to 100
19 | O=C(C[S+]([O-])C(F)(F)F)Nc1c(F)ccc(NC(=O)c2cc(NC(=O)[C@H]3[C@H](c4ccc(F)c(Cl)c4)C3(Cl)Cl)ccc2Cl)c1F (stereo partly drawn) [F28, 2-Chloro-5-((1R,3R)-2,2-dichloro-3-(3-chloro-4-fluorophenyl)cyclopropane-1-carboxamido)-N-(2,4-difluoro-3-(2-((trifluoromethyl)sulfinyl)acetamido)phenyl)benzamide] | 50 to 100 | 50 to 100
